Measured values as given in US20120255051A1, “HERBICIDE TOLERANT PLANTS” (priority 2009, published 2012).

Tested on: Brassica plants comprising mutant AHAS alleles
Assay: Greenhouse pre-planting application (20 g a.i./ha): vigor scores
Format: in vivo, Brassica napus
Conditions: for vigor score Av, pre-planting (2, 3 and 4 weeks after treatment): 20 g a.i./ha
Procedure: In another experiment, the effect of combining AHAS full knockouts with AHAS missense herbicide tolerant alleles on tolerance to thiencarbazone-methyl pre-planting application and thiencarbazone-methyl post-emergence spraying was tested in the greenhouse. To this end, the Brassica plants identified in Example 1 and 2 were backcrossed two times with an elite parent line, and subsequently selfed twice to obtain homozygous plants (BC2S2). Treatment pre-planting was carried out on the soil just after sowing with a dose of 20 g a.i./ha of thiencarbazone methyl. For assessment of vigor scores, plants were evaluated on a scale of 1 to 9, where 1=dead, 3=poor, 6=some aberrant phenotype and 9=vigorous. The vigor scores are an average of the scores taken at 2, 3 and 4 weeks after treatment. Treatment post-emergence at the first leaf stage was carried out with a dose of 10 g a.i./ha of thiencarbazone-methyl. The vigor scores are an average of the scores taken 1, 2 and 3 weeks after the treatment. The average values (Av) and standard deviations (SD) of the vigor scores are represented in Table 6.

COC(=O)c1csc(C)c1S(=O)(=O)NC(=O)n1nc(OC)n(C)c1=O [thiencarbazone-methyl, methyl 4-[(4,5-dihydro-3-methoxy-4-methyl-5-oxo-1H-1,2,4-triazol-1-yl)carbonylsulfamoyl]-5-methylthiophene-3-carboxylate]
vigor score Av, pre-planting (2, 3 and 4 weeks after treatment) (AHAS1 +/+, AHAS3 +/+ (HETO108+HETO104 series)): 1.3
vigor score Av, pre-planting (2, 3 and 4 weeks after treatment) (AHAS1 +/+, AHAS3 +/+ (HETO108+HETO111 series)): 1.4
vigor score Av, pre-planting (2, 3 and 4 weeks after treatment) (AHAS1 +/+, AHAS3 +/+ (HETO112+HETO111 series)): 1.4
vigor score Av, pre-planting (2, 3 and 4 weeks after treatment) (AHAS1 +/+, AHAS3 HETO104/HETO104): 1.3
vigor score Av, pre-planting (2, 3 and 4 weeks after treatment) (AHAS1 +/+, AHAS3 HETO111/HETO111 (HETO108+HETO111 series)): 5.2
vigor score Av, pre-planting (2, 3 and 4 weeks after treatment) (AHAS1 +/+, AHAS3 HETO111/HETO111 (HETO112+HETO111 series)): 4.8
vigor score Av, pre-planting (2, 3 and 4 weeks after treatment) (AHAS1 HETO108/HETO108, AHAS3 +/+ (HETO108+HETO104 series)): 5.3
vigor score Av, pre-planting (2, 3 and 4 weeks after treatment) (AHAS1 HETO108/HETO108, AHAS3 +/+ (HETO108+HETO111 series)): 4.4
vigor score Av, pre-planting (2, 3 and 4 weeks after treatment) (AHAS1 HETO108/HETO108, AHAS3 HETO104/HETO104): 6.1
vigor score Av, pre-planting (2, 3 and 4 weeks after treatment) (AHAS1 HETO108/HETO108, AHAS3 HETO111/HETO111): 7.6
vigor score Av, pre-planting (2, 3 and 4 weeks after treatment) (AHAS1 HETO112/HETO112, AHAS3 +/+): 1.4
vigor score Av, pre-planting (2, 3 and 4 weeks after treatment) (AHAS1 HETO112/HETO112, AHAS3 HETO111/HETO111): 5.6
vigor score Av, pre-planting (2, 3 and 4 weeks after treatment) (Elite parent line treated): 1.8
thiencarbazone-methyl tolerance of plants homozygous for a missense allele and a full knock-out allele, versus missense allele with other AHAS gene homozygous wild-type (pre-planting treatment, greenhouse): higher
